Measurements: PMC6895180 (Nature Communications, 2019)
Values joined by “and” are separate entries in the source; they are usually repeats but may differ in a detail not shown here. Identical values can stand only once. Like-named read-outs stand apart in the source and are kept apart here.

Tests used:
[1] = system: T. brucei Lister 427 cells; test: Nucleotide pool analysis (HPLC); format: cell-based, Trypanosoma brucei; conditions: 25 μM, versus untreated trypanosomes
Description: (1 picture or pasted object on this page, not shown here)
The following primers were used: […]

T. b. brucei BS221 = test: Susceptibility assay, BS221 cells; format: cell-based, Trypanosoma brucei brucei; conditions: for IC50: single determinations
Procedure: (§1) Susceptibility assays with NY-SM[51], BS221[48] and TbAT1-KO[48] (derived from BS221) cells were performed using 10 concentrations of a 4-fold compound dilution series starting at 64 µM. Parasites were seeded at 4 × 10^3 parasites per well and exposed to drug compound for 72 h, after which resazurin (final concentration of 10 µg mL^−1) was added to the plates. Fluorescence intensities were determined after 6 h.

[2] = Metabolic stability, rat liver microsomes (phase I and II)
Procedure: (§2) Mouse, rat, and pooled human liver microsomes were purchased from a commercial source (Corning) and stored at -80 °C. NADPH generating system solutions A and B and UGT reaction mix solutions A and B (Corning) were kept at -20°C. The test compound and the reference compounds diclofenac (MW […]
(§3) microsomal stability assay was carried out based on the BD Biosciences Guidelines for Use (TF000017 Rev1.0) with minor adaptations. Metabolic stability of the compounds was studied through the CYP450 superfamily (phase I metabolism) by fortification with reduced nicotinamide adenine dinucleotide phosphate (NADPH) and through uridine glucuronosyl-transferase (UGT) enzymes (phase II metabolism) by fortification with uridine diphosphate glucuronic acid (UDPGA). For the CYP450 and other NADPH dependent enzymes, both compounds were incubated at 5 µM together with 0.5 mg mL-1 liver microsomes in potassium phosphate buffer in a reaction started by the addition of 1 mM NADPH […]
(§4) At these time points, 20 µL was withdrawn from the reaction mixture and 80 µL cold acetonitrile (ACN) containing the internal standard tolbutamide, was added to inactivate the enzymes and precipitate the proteins. The mixture was vortexed for 30 s and centrifuged at 4 °C for 5 min at 15,000 rpm. The supernatant was stored at -80°C until analysis. For the UGT enzymes, both compounds were incubated at 5 µM together with 0.5 mg mL-1 liver microsomes in a reaction started by the addition of 2 mM UDPGA cofactor. The corresponding loss of parent compound was determined using liquid chromatography (UPLC) (Waters AquityTM) coupled with tandem quadrupole mass spectrometry (MS²) (Waters XevoTM), equipped with an electrospray ionization (ESI) interface and operated in multiple reaction monitoring (MRM) mode. […]

T. brucei NY-SM cells = test: Susceptibility assay, NY-SM cells; format: cell-based, Trypanosoma brucei brucei
Procedure: as §1

[3] = Metabolic stability, mouse liver microsomes (phase I and II)
Procedure: as §2, §3, §4

[4] = system: AT1-KO T. b. brucei strain (derived from BS221); test: Susceptibility assay, TbAT1-KO (derived from BS221); format: cell-based, Trypanosoma brucei brucei
Procedure: as §1

Nc1ncnc2c1ccn2[C@@H]1O[C@H](CO)C[C@H]1O [Compound 9, 3’-deoxytubercidin]
effect on intracellular purine and pyrimidine nucleotide pools [1]: did not cause any change in the balance or total quantity of intracellular purine and pyrimidine nucleotides
Inhibition (%) (T. b. brucei BS221; BS221, 0.015625 µM): 98% and 95%
Inhibition (%) (T. b. brucei BS221; BS221, 0.25 µM): 98%
Inhibition (%) (T. b. brucei BS221; BS221, 1 µM): 98%
Inhibition (%) (T. b. brucei BS221; BS221, 4 µM): 98%
Inhibition (%) (T. b. brucei BS221; BS221, 16 µM): 98%
inhibition at 0.000244141 µM (T. b. brucei BS221; Trypanosoma brucei, BS221, 0.000244141 µM): 0%
inhibition at 0.000976563 µM (T. b. brucei BS221; Trypanosoma brucei, BS221, 0.000976563 µM): 0%
inhibition at 0.015625 µM (T. b. brucei BS221; Trypanosoma brucei, BS221, 0.015625 µM): 97%
inhibition at 0.0625 µM (T. b. brucei BS221; Trypanosoma brucei, BS221, 0.0625 µM): 99%
inhibition at 0.25 µM (T. b. brucei BS221; Trypanosoma brucei, BS221, 0.25 µM): 99%
inhibition at 1 µM (T. b. brucei BS221; Trypanosoma brucei, BS221, 1 µM): 99%
inhibition at 4 µM (T. b. brucei BS221; Trypanosoma brucei, BS221, 4 µM): 100%
inhibition at 16 µM (T. b. brucei BS221; Trypanosoma brucei, BS221, 16 µM): 99%
inhibition at 64 µM (T. b. brucei BS221; Trypanosoma brucei, BS221, 64 µM): 99%
IC50 (T. b. brucei BS221; Trypanosoma brucei): 6.8 nM
EC50 (T. b. brucei BS221; Trypanosoma brucei, BS221, mean and SEM, n = 2, read-out: EC50, parental line of AT1-KO): 6.4 ± 0.4 nM
IC50 (T. b. brucei BS221): 6.1 nM and 5.4 nM and 7.3 nM
% analogue remaining, EXP 1 / EXP 2 ([2]; microsomes, 0 min, 5 µM): 100%
% analogue remaining, Mean ([2]; microsomes, 0 min, 5 µM): 100%
metabolic stability ([2]; s9, 0.5 h): metabolically stable
IC50 (T. brucei NY-SM cells; NYsm parental cells, single replicates, read-out: IC50): 7.98 nM and 7.87 nM
Inhibition (%) (T. brucei NY-SM cells; NYsm, 0.000244141 µM): 0% and 3.5% and 5.32% and 2.3%
Inhibition (%) (T. brucei NY-SM cells; NYsm, 0.000976563 µM): 5.56% and 15% and 14% and 7%
Inhibition (%) (T. brucei NY-SM cells; NYsm, 0.00390625 µM): 52% and 44%
Inhibition (%) (T. brucei NY-SM cells; NYsm, 0.015625 µM): 98%
Inhibition (%) (T. brucei NY-SM cells; NYsm, 1 µM): 98%
IC50 (T. brucei NY-SM cells; Trypanosoma brucei, NYsm parental cells, single replicates, read-out: IC50): 7.92 nM
inhibition at 0.00390625 µM (T. brucei NY-SM cells; Trypanosoma brucei, NYsm, 0.00390625 µM): 53%
inhibition at 0.015625 µM (T. brucei NY-SM cells; Trypanosoma brucei, NYsm, 0.015625 µM): 99%
inhibition at 0.0625 µM (T. brucei NY-SM cells; Trypanosoma brucei, NYsm, 0.0625 µM): 99%
inhibition at 0.25 µM (T. brucei NY-SM cells; Trypanosoma brucei, NYsm, 0.25 µM): 100%
inhibition at 1 µM (T. brucei NY-SM cells; Trypanosoma brucei, NYsm, 1 µM): 100%
inhibition at 4 µM (T. brucei NY-SM cells; Trypanosoma brucei, NYsm, 4 µM): 100%
inhibition at 16 µM (T. brucei NY-SM cells; Trypanosoma brucei, NYsm, 16 µM): 100%
inhibition at 64 µM (T. brucei NY-SM cells; Trypanosoma brucei, NYsm, 64 µM): 100%
IC50 (T. brucei NY-SM cells; Trypanosoma brucei, single determinations, read-out: IC50, NYsm): 5.2 nM
IC50 (T. brucei NY-SM cells; single determinations, read-out: IC50, NYsm): 5.9 nM and 6.6 nM and 3.6 nM and 4.6 nM and 3.7 nM and 6.4 nM
% analogue 9 remaining, EXP 1 / EXP 2 ([3]; microsomes, 0 min, 5 µM): 100%
% analogue 9 remaining, Mean ([3]; microsomes, 0 min, 5 µM): 100%
metabolic stability ([3]; s9, 0.5 h): metabolically stable
Inhibition (%) ([4]; TbAT1KO, 0.000976563 µM): 0% and 2%
Inhibition (%) ([4]; TbAT1KO, 0.00390625 µM): 5% and 10% and 0%
Inhibition (%) ([4]; TbAT1KO, 0.25 µM): 89% and 94% and 60% and 62%
Inhibition (%) ([4]; TbAT1KO, 64 µM): 100%
inhibition at 1 µM ([4]; Trypanosoma brucei, TbAT1KO, 1 µM): 98%
inhibition at 4 µM ([4]; Trypanosoma brucei, TbAT1KO, 4 µM): 99%
inhibition at 16 µM ([4]; Trypanosoma brucei, TbAT1KO, 16 µM): 99%
inhibition at 64 µM ([4]; Trypanosoma brucei, TbAT1KO, 64 µM): 99%
EC50 ([4]; Trypanosoma brucei, read-out: EC50 upon AT1-KO): 150 ± 30 nM
